Data taken from the OligoGym collection.
Where “and” joins values, the source holds several entries; their conditions need not be identical. Equal entries are not always repeated. After the bases stand the sugars from the 5' end (letter, count) and the backbone: PS all phosphorothioate, else s phosphorothioate and o phosphodiester by linkage. Methylation of C is not given here. e = 2'-O-(2-methoxyethyl) (MOE); k = constrained ethyl (cEt); d = 2'-deoxy (DNA)

Key:
[1] = molecular target: DGAT2; details: ASO
[2] = molecular target: APOL1; details: ASO

| Sequence | target mRNA inhibition ([1]; HepG2, 0.12 µM) | target mRNA inhibition ([1]; HepG2, 2.5 µM) | target mRNA inhibition ([1]; HepG2, 10 µM) | further results |
| --- | --- | --- | --- | --- |
| AAATAACCCACAGACACCCA (sugars e5 d10 e5, PS) | 10% | 52% and 50% and 46% | 96% and 85% | target mRNA inhibition ([1]; HepG2, 20 µM): 97% |
| AACCACAGCGATAATCACAC (sugars e5 d10 e5, PS) | – | 66% | 91% | – |
| AAGATATAGTTCCTGGTGGT (sugars e5 d10 e5, PS) | 41% | – | – | – |
| AAGGAAAACTTAGGCATGCT (sugars e5 d10 e5, PS) | – | 63% | 80% | – |
| AAGGAGTTTGTGTTTCCCAT (sugars e5 d10 e5, PS) | – | 71% and 65% | 91% and 85% | – |
| AAGGCCGTATGCCTGGGAAC (sugars e5 d10 e5, PS) | 25% | – | – | – |
| AATAGTCTATGGTGTCCCGG (sugars e5 d10 e5, PS) | 63% | – | – | – |
| AATCCAACCCTTGTCACTCT (sugars e5 d10 e5, PS) | – | 33% | 94% | – |
| AATCTGTGTGACCTTGGGCA (sugars e5 d10 e5, PS) | – | 87% and 82% | 84% and 93% | – |
| AATGGAGTGACAGGGCAGGA (sugars e5 d10 e5, PS) | – | 54% | 81% | – |
| AATGGGAATGGTATCGCACT (sugars e5 d10 e5, PS) | – | 58% | 89% | – |
| ACAAAGTCTATCAGGATGCA (sugars e5 d10 e5, PS) | – | 53% | 91% | – |
| ACAACTCTCTTGTTGGGAGG (sugars e5 d10 e5, PS) | – | 64% | 84% | – |
| ACAATTCCTGGATAACAAGG (sugars e5 d10 e5, PS) | 41% | – | – | – |
| ACAGAAAAGTGAGGCTTGGG (sugars e5 d10 e5, PS) | 40% | – | – | – |
| ACAGGAAGCCTGGTGACTGC (sugars e5 d10 e5, PS) | 54% | – | – | – |
| ACAGGGCAGATACCTCCAGA (sugars e5 d10 e5, PS) | 58% | – | – | – |
| ACCACAGCGATAATCAC (sugars e3 d10 e4, PS) | – | 50% | 75% | – |
| ACCAGCCAGGCCCAGACCCA (sugars e5 d10 e5, PS) | – | 21% | 43% | – |
| ACCAGCTGCAAGGATGACCT (sugars e5 d10 e5, PS) | 49% | – | – | – |
| ACCCACTGGAGCACTGAGAT (sugars e2 d13 e5, PS) | 52% | – | – | – |

| Sequence | target mRNA inhibition ([1]; HepG2, 0.12 µM) | target mRNA inhibition ([1]; HepG2, 2.5 µM) | target mRNA inhibition ([1]; HepG2, 10 µM) | further results |
| --- | --- | --- | --- | --- |
| ACCCAGAGATGGTGATAAGG (sugars e5 d10 e5, PS) | 53% | – | – | – |
| ACCCATCGGCCCCAGGAGCC (sugars e5 d10 e5, PS) | 59% | – | – | – |
| ACCTGGGTTTTTGTGTATTC (sugars e5 d10 e5, PS) | – | 86% and 87% | 86% and 90% | – |
| ACTTCATTCTCTCCAAAGGA (sugars e5 d10 e5, PS) | 45% | – | – | – |
| AGAAAAACCAGTTACTCCAC (sugars e5 d10 e5, PS) | 4% | – | – | – |
| AGAAGGCACCCAGGCCCATG (sugars e5 d10 e5, PS) | 38% | – | – | – |
| AGAGCACAGCGATGAGCCAG (sugars e5 d10 e5, PS) | – | 52% | 85% | – |
| AGAGCCAGCACACAGCTATG (sugars e5 d10 e5, PS) | 20% | – | – | – |
| AGAGCTTCACCAGGGCCTCC (sugars e5 d10 e5, PS) | 46% | – | – | – |
| AGATGCCACTTCATCAAGGC (sugars e5 d10 e5, PS) | 24% | – | – | – |
| AGCAGGTTGTGTGTCTTCAC (sugars e5 d10 e5, PS) | 55% and 77% | 0% | – | – |
| AGCAGTCTGCCTGATTCCCT (sugars e5 d10 e5, PS) | – | 69% and 44% | 87% and 82% | – |
| AGCCAGGTAAGGCCGTATGC (sugars e2 d13 e5, PS) | 67% | – | – | – |
| AGCCTGGACAAGTCCTGCCC (sugars e2 d13 e5, PS) | 75% | – | – | – |
| AGCCTGGACAAGTCCTGCCC (sugars e5 d10 e5, PS) | 79% | – | – | target mRNA inhibition ([1]; HepG2, 20 µM): 79% and 92% and 91% |
| AGGAAAACTTAGGCATGCTT (sugars e5 d10 e5, PS) | – | 58% | 84% | – |
| AGGAAGGACAGGACCCACTG (sugars e5 d10 e5, PS) | 38% | – | – | – |
| AGGACACCTGGAGCTGCGGC (sugars e5 d10 e5, PS) | – | 42% | 84% | – |
| AGGACAGGGCAGACACACCT (sugars e5 d10 e5, PS) | 44% | – | – | – |
| AGGACCCACTGGAGCACTGA (sugars e2 d13 e5, PS) | 75% | – | – | – |
| AGGACCCCGGAGTAGGCGGC (sugars e5 d10 e5, PS) | 52% and 76% | 60% | 92% | – |

| Sequence | target mRNA inhibition ([1]; HepG2, 0.12 µM) | target mRNA inhibition ([1]; HepG2, 2.5 µM) | target mRNA inhibition ([1]; HepG2, 10 µM) | further results |
| --- | --- | --- | --- | --- |
| AGGAGCCCTCCTCGAAGATC (sugars e5 d10 e5, PS) | 31% | – | – | – |
| AGGCACAGAAAAGTGAGGCT (sugars e5 d10 e5, PS) | – | 75% | 67% | – |
| AGGCATATACAAAAGTCTGA (sugars e5 d10 e5, PS) | 38% | – | – | – |
| AGGCATGGAGCTCAGAGACT (sugars e3 d14 e3, PS) | 66% | – | – | – |
| AGGCCAAGGACAGAGGTTCA (sugars e5 d10 e5, PS) | – | 60% and 51% | 81% and 87% | – |
| AGGGAGGCCTTGCACTTACC (sugars e5 d10 e5, PS) | 13% | – | – | – |
| AGGTTGTGTGTCTTCACCAG (sugars e3 d14 e3, PS) | 61% | – | – | – |
| AGTTTCGGACCCACTGTGAC (sugars e5 d10 e5, PS) | 63% | – | – | – |
| ATAATTTCTTTTAAATAACC (sugars e5 d10 e5, PS) | 0% | – | – | – |
| ATCCAGTGCCCCATCTCCCA (sugars e5 d10 e5, PS) | 16% | – | – | – |
| TTCTCATGGTACAGGA (sugars kkddddkekekddddd, PS) | – | – | – | target mRNA inhibition ([2]; A431, 2 µM): 76% |
| TTTAAACTCAGGTGAC (sugars kdddddkekekddddd, PS) | – | – | – | target mRNA inhibition ([2]; A431, 2 µM): 45% |
| TTTAGAAAGGACACGG (sugars k4 d9 k3, PS) | – | – | – | target mRNA inhibition ([2]; A431, 0.0625 µM): 42%; target mRNA inhibition ([2]; A431, 0.25 µM): 73%; target mRNA inhibition ([2]; A431, 1 µM): 90% |
| TTTATACCAGTGTCTT (sugars kkddddkdkdkddddd, PS) | – | – | – | target mRNA inhibition ([2]; A431, 2 µM): 81% |
| TTTATACCAGTGTCTT (sugars kkddddkekekddddd, PS) | – | – | – | target mRNA inhibition ([2]; A431, 2 µM): 89% |
| TTTATACCAGTGTCTT (sugars kkddddkekekkdddd, PS) | – | – | – | target mRNA inhibition ([2]; A431, 2 µM): 51% |
| TTTGGGTCAAAAGCGA (sugars k4 d9 k3, PS) | – | – | – | target mRNA inhibition ([2]; A431, 0.25 µM): 66% and 85%; target mRNA inhibition ([2]; A431, 1 µM): 83% and 93% |
| TTTGTAAGTGCAACCA (sugars k2 d4 e3 k2 d5, PS) | – | – | – | target mRNA inhibition ([2]; A431, 0.0156 µM): 23%; target mRNA inhibition ([2]; A431, 0.0625 µM): 60%; target mRNA inhibition ([2]; A431, 0.25 µM): 87%; target mRNA inhibition ([2]; A431, 1 µM): 98%; target mRNA inhibition ([2]; A431, 2 µM): 99% |
| TTTTGTAAGTGCAACC (sugars k3 d4 k3 e1 d5, PS) | – | – | – | target mRNA inhibition ([2]; A431, 0.0156 µM): 38%; target mRNA inhibition ([2]; A431, 0.04 µM): 38% and 24%; target mRNA inhibition ([2]; A431, 0.0625 µM): 71%; target mRNA inhibition ([2]; A431, 0.25 µM): 93%; target mRNA inhibition ([2]; A431, 1 µM): 97% and 98% and 94%; target mRNA inhibition ([2]; A431, 2 µM): 98% |
| TTTTGTAAGTGCAACC (sugars kkkddddkekeddddd, PS) | – | – | – | target mRNA inhibition ([2]; A431, 0.0156 µM): 21%; target mRNA inhibition ([2]; A431, 0.0625 µM): 67%; target mRNA inhibition ([2]; A431, 0.25 µM): 89%; target mRNA inhibition ([2]; A431, 1 µM): 97%; target mRNA inhibition ([2]; A431, 2 µM): 98% |
